Data as given in US12590100B2, “Tetrahydro-spiroindoline-pyrrolopyrrole-triones inhibitors of the NRF2-β-TrCP interaction for use in the treatment of fatty liver disease” (Universidad Autonoma De Madrid, priority 2021, dated 2026).

Assays:
Raw264.7 cells = assay: Inflammatory response in LPS-stimulated Raw264.7 cells; type: cell-based, mouse; conditions: Raw264.7, PHAR 10 μM 8 h pretreatment
Protocol: FIG. 7. […] Serum-deprived Raw264.7 cells were pretreated with 10 μM of PHAR for 8 h. 0.1% DMSO was used as a vehicle. After that period of time, the cells were treated with 100 ng/ml of LPS for the indicated times. A), representative immunoblots of NRF2, HO1, p65, pre-IL1β, COX2, NOS2, and GAPDH as a loading control. The black arrow tip marks the specific band of p65 and NOS2. B), densitometric analysis of HO1 and NRF2 protein levels of the representative immunoblots of (A), expressed as a ratio of protein/GAPDH levels. The data is depicted as means±SEM (n=3). Statistical analysis was performed with two-way ANOVA followed by the Bonferroni test to compare inter-group differences. ***p<0.001 vs LPS. C), Densitometric analysis of pre-IL1β, COX2, and NOS2 protein levels of the representative immunoblots of (A), expressed as a ratio of protein/GAPDH levels. The data is depicted as means±SEM (n=3). Statistical analysis was performed with two-way ANOVA followed by the Bonferroni test to compare inter-group differences. ***p<0.001 vs. LPS. D) and E), the mRNA levels of Il1β, Cox2, Nos2, Il6, and Tnfα were determined by means of qRT-PCR and normalized by means of average Gapdh, Tbp, and β-actin. The data is depicted as mean±SEM (n=3). Statistical analysis was performed with two-way ANOVA followed by the Bonferroni test to check inter-group differences. ***p<0.001 vs. LPS. […] The cells were then stimulated with LPS (100 ng/ml, 1, 2, or 4 h) to trigger an inflammatory response.

STAM mice (NAFLD) = assay: STAM fatty liver model, treatment from steatosis stage (week 6); type: in vivo, mouse
Protocol: FIG. 12. PHAR decreases the inflammatory response in mice subjected to fatty liver in the STAM model. The STAM model is based on the induction of non-alcoholic fatty liver (NAFLD) generated by the subcutaneous injection of streptozotocin (STZ) in neonatal C57BL/6J mice (2-5 days old) followed by a high-fat diet administered from 4 weeks of age. In this case, we treated mice in the steatosis stage (week 6), 5 days a week with an IP administration of 50 mg/kg in order to analyze if PHAR prevents progression to the next stage (NASH). A), H&E staining of liver from PHAR-treated and untreated STAM mice. Histochemical lipid staining with oil red was used to visualize the amount of liver fat. B), normalized quantification of the amount of liver fat per mouse, measured by MRI, on the last day of treatment. C), representative MRI profiles of one mouse liver of each group. The peak that appears at an approximate frequency of 4.7 ppm corresponds to the water molecule (the majority), while the rest of the peaks give information on the amount of liver fat. The ratio of the sum of the fat peaks to water indicates the total liver fat content. D), mRNA levels of several genes involved in fatty acid metabolism (Cpt1a, Scd1, Cd36 and Fasn). E), the mRNA levels of the pro-inflammatory (Tnf, Il6 and Infg) and anti-inflammatory (Il10 and Il4) cytokines were determined by qRT-PCR and were normalized by the average of Gapdh, Tbp and β-actin. Statistical analysis was performed using a Student's t test to compare the differences between PHAR-treated mice vs vehicle-treated mice. *p<0.05; **p<0.01.
As previously described, the STAM model is a murine model used for the study of non-alcoholic fatty liver disease (NAFLD), as well as for the search of new effective treatments. This model is generated by the subcutaneous injection of streptozotocin (STZ) in 2-5 day old neonatal C57BL/6J mice followed by a high-fat diet, administered after 4 weeks of age. STZ produces a pancreatic lesion that leads to the appearance of hyperglycemia that, together with the high-fat diet, gradually leads to different stages of progressive liver damage: steatosis (week 6 post-STZ injection); Inflammatory NASH (week 8); NASH fibrosis (week 10) and, finally, hepatocarcinoma (week 16). The pathogenesis of NAFLD is closely related to the appearance of reactive oxygen species, chronic low-grade inflammation, and changes in lipid metabolism. For this reason, we determined whether PHAR, as an inducer of NRF2, could attenuate the inflammatory response. Specifically, we treated mice in the steatosis stage (week 6), 5 days a week with an IP administration of 50 mg/kg in order to analyze if it prevents progression to the next stage (NASH). […] Altogether, we conclude that PHAR slows down the accumulation of fat and, therefore, prevents the appearance of NASH.

[1] = STAM mice from week 6, IP 50 mg/kg 5 days a week

## O=C1[C@@H]2[C@H](Cc3c[nH]c4ccccc34)N[C@]3(C(=O)Nc4ccc(Cl)cc43)[C@@H]2C(=O)N1c1ccc2c(c1)OCCO2 [PHAR]
Raw264.7 cells; LPS 100 ng/ml
  Il6 and Tnfa induction: significantly milder induction
  NRF2 and HO-1 levels: increased NRF2 and HO-1 levels
Raw264.7 cells; LPS 100 ng/ml 4 h
  inflammatory parameters by immunoblot (pre-IL1β, COX2, NOS2) or mRNA (Il1β, Cox2, Nos2): mitigated the increase in inflammatory parameters
STAM mice (NAFLD); [1]
  accumulated liver fat (oil red): significantly decreased the amount of accumulated liver fat
  liver fat quantity by MRI at the end of treatment: slows the accumulation of liver fat
STAM mice (NAFLD); STAM mice from week 6, liver
  expression of anti-inflammatory cytokines Il10 and Il4: to increase the anti-inflammatory cytokines
  expression of pro-inflammatory cytokines Tnf, Il6, Infg: tendency to decrease
  fatty acid synthesis, Fasn expression (mRNA): decreasing of Fasn
  lipid catabolism, expression of Cpt1a (mRNA): increase in lipid catabolism
